This passage reports Km results from paper PMC8910387, “Systematic Comparison of Beetle Luciferase-Luciferin Pairs as Sources of Near-Infrared Light for In Vitro and In Vivo Applications” (International Journal of Molecular Sciences, 2022).

Holding throughout (assay): bioluminescence peak-height (V0) kinetics
The subject of test [1] is T1, CBR (tested as CBR2, CBR2opt).
T1 construct: mouse codon optimized; pGEX-6P-2, E. coli BL21(DE3)pLysS, GST removed, N-terminal GlyProLeuGlySer kept
Type of test: biochemical. The conditions noted are these: Mg-ATP, O2; assay details in supplement; read-out: Km (μM) ^4. An excerpt:
bioluminescence peak-height (V0) kinetics on CBR (tested as CBR2, CBR2opt)

The target of test [2] is T2, Luc2 (Photinus pyralis, UniProt P08659).
T2 construct: mammalian codon optimized P. pyralis Luc; pGEX-6P-2, E. coli BL21(DE3)pLysS, GST removed, N-terminal GlyProLeuGlySer kept; Mut51 from pET28a (His-tag)
Format: biochemical. The conditions noted are these: Mg-ATP, O2; assay details in supplement; read-out: Km (μM) ^4. An excerpt: (§1) bioluminescence peak-height (V0) kinetics on Luc2

In a further test the test system is T3, PLR3.
T3 construct: G246A/F250H in mammalian codon optimized PLR1; pGEX-6P-2, N-terminal GlyProLeuGlySer kept
Type of test: biochemical, Photinus pyralis / Luciola italica. The conditions noted are these: Mg-ATP, O2; assay details in supplement; read-out: Km (μM) ^4. The text has this:
bioluminescence peak-height (V0) kinetics on PLR3

Test [3] addresses T4, Luc2 (Photinus pyralis, UniProt P08659, F243M/S347G, form not given).
T4 construct: mammalian codon optimized P. pyralis Luc; pGEX-6P-2, E. coli BL21(DE3)pLysS, GST removed, N-terminal GlyProLeuGlySer kept; Mut51 from pET28a (His-tag)
Type of test: biochemical. The conditions noted are these: Mg-ATP, O2; assay details in supplement; Mut51, His-tagged; read-out: Km (μM) ^4.
From the text: as §1

A further test addresses T5, Fluc_red (Photinus pyralis, UniProt P08659, S284T/E354R/D357Y, form not given).
T5 construct: pET16b, His-tag
Type of test: biochemical. The conditions noted are these: Mg-ATP, O2; assay details in supplement; read-out: Km (μM) ^4. The text has this: bioluminescence peak-height (V0) kinetics on Fluc_red

Molecules are shown by their SMILES.

T2 sequence (P08659 whole entry): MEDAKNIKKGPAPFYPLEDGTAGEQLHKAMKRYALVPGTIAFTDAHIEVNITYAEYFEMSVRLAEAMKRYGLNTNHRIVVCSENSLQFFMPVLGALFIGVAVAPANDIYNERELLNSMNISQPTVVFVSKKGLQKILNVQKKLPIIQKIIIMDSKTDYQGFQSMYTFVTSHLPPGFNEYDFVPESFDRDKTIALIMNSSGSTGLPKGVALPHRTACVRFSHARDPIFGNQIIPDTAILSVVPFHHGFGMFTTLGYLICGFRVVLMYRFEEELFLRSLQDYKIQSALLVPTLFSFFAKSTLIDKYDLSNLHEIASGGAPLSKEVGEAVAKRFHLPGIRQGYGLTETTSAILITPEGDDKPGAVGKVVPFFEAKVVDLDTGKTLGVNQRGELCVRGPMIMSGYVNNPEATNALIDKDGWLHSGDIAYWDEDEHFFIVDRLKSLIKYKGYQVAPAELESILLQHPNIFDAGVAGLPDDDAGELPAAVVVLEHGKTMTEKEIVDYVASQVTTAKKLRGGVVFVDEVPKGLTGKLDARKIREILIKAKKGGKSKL
T4 sequence (P08659 whole entry F243M/S347G, form open): as the sequence (P08659 whole entry) above, with F243M, S347G counted along it
T5 sequence (P08659 whole entry S284T/E354R/D357Y, form open): as the sequence (P08659 whole entry) above, with S284T, E354R, D357Y counted along it

In general, Km refers to the substrate concentration at which the rate is half of its maximum. Take `O=C(O)[C@H]1CSC(c2nc3ccc(O)cc3s2)=N1` [LH2, (S)-2-(6-hydroxybenzo[d]thiazol-2-yl)-4,5-dihydrothiazole-4-carboxylic acid]: the Km in test [1] is 250 ± 24 µM.

For the compound `O=C(O)[C@H]1CSC(c2nc3ccc4cc(O)ccc4c3s2)=N1` [OH-NpLH2], the Km in test [1] was found to be 0.93 ± 0.13 µM. For the compound `Nc1ccc2c(ccc3nc(C4=N[C@@H](C(=O)O)CS4)sc32)c1` [NH2-NpLH2], the results for the Km (in test [1]; at Luc2 [2]) were 0.8 ± 0.1 µM and 3.3 ± 0.6 µM, respectively. As for `O=C(O)[C@H]1CSC(c2nc3ccc4cc(O)cnc4c3s2)=N1` [OH-QLH2], the figures for the Km at Luc2 [2] and in the test on PLR3 were 1.8 ± 0.6 µM and 1.6 ± 0.1 µM, respectively. Consider `O=C(O)[C@H]1CSC(c2nc3c(Br)cc(O)cc3s2)=N1` [4′-BrLuc, (S)-2-(4-bromo-6-hydroxybenzo[d]thiazol-2-yl)-4,5-dihydrothiazole-4-carboxylic acid], for which the Km on Luc2 [3] was 2.3 ± 0.2 µM; at Luc2 [2], 44 ± 11 µM. For the compound `Nc1cnc2c(ccc3nc(C4=N[C@@H](C(=O)O)CS4)sc32)c1` [NH2-QLH2], on Luc2 [2], the Km worked out at 1.5 ± 0.2 µM.

For `Nc1ccc2nc(C3=N[C@@H](C(=O)O)CS3)sc2c1` [NH2-LH2, (S)-2-(6-aminobenzo[d]thiazol-2-yl)-4,5-dihydrothiazole-4-carboxylic acid], the Km in test [1] worked out at 9.5 ± 1.3 µM. Take `O=C(O)[C@H]1CSC(/C=C/c2nc3ccc(O)cc3s2)=N1` [iLH2, (S,E)-2-(2-(6-hydroxybenzo[d]thiazol-2-yl)vinyl)-4,5-dihydrothiazole-4-carboxylic acid]: the Km in test [1] stood at 0.9 ± 0.08 µM; at Luc2 [2] it was 0.13 ± 0.05 µM; on Fluc_red it was 0.17 ± 0.05 µM.

On to `O=C(O)[C@H]1CSC(c2nc3cc4c(cc3s2)NCC4)=N1` [CycLuc1, (S)-2-(6,7-dihydro-5H-thiazolo[4,5-f]indol-2-yl)-4,5-dihydrothiazole-4-carboxylic acid], for which the Km at Luc2 [2] amounted to 0.61 ± 0.2 µM.
